Reference: US20230109839A1, “THERAPEUTIC AGENT FOR TAUOPATHIES” (SUMITOMO PHARMA CO., LTD., priority 2020, published 2023)

Biological target: T1, human Nav1.1 (Homo sapiens, UniProt P35498)
T1 construct: host or cells: HEK293
Assay: Amplification of Nav1.1-derived voltage-gated sodium current (Nav1.1 current), automated patch clamp (Test 1)
Assay type: cell-based
Conditions: HEK293 cell line stably expressing human Nav1.1
Description: Test 1: Evaluation of the Amplification of Nav1.1-Derived Voltage-Gated Sodium Current (Nav1.1 Current) by Using a Cell Line Stably Expressing Human Nav1.1
(1) Preparation of Test Compound Solution
Test compounds were prepared by dissolving in DMSO at 200 times of the concentration at evaluation, and diluting the obtained solution to twice the concentration of evaluation with an extracellular fluid (135 mmol/L NaCl, 4 mmol/L KCl, 1 mmol/L MgCl2, 5 mmol/L CaCl2, 5 mmol/L Glucose, 10 mmol/L HEPES).
(2) Induction and Measurement of Nav1.1 Current
A HEK293 cell line stably expressing human Nav1.1 (cat #CYL3009, Eurofins DiscoverX Products, LLC, Human Embryonic Kidney 293) was purchased, and used in the present test. Nav1.1 current was induced by stimulating Ramp wave voltage. Detection of current which accompanied with the stimulation of voltage was carried out by a patch-clamp voltage-clamp method using HTS automated patch clamp system (SynchroPatch 768PE, Nanion Technologies GmbH, Germany). Only cells with more than 500 pA of voltage-gated sodium channel current were used for the evaluation of the activity of compounds on Nav1.1 current because there was the possibility that currents derived from endogenous voltage-gated sodium channels accounted for large proportion in cells with less than 500 pA of voltage-gated sodium channel current which was induced by stimulating Ramp wave voltage.
(3) Pharmacological Effect on Nav1.1 Current
The effect of test compounds on the amplification of Nav1.1-derived voltage-gated sodium current was evaluated by using a cell line stably expressing human Nav1.1 and HTS automated patch clamp system. In other words, test compounds were added in an extracellular fluid containing 1% DMSO, and evaluated as a change of the peak value of Nav1.1 current and the area under the curve (AUC).
(4) Method for Pharmacological Evaluation
The Nav1.1 current amplification rates of test compounds were calculated by the following formula:
Nav1.1 current amplification rate (%)=100×[the peak value of Nav1.1 current or the area under the curve after the addition of test compounds]/[the peak value of Nav1.1 current or the area under the curve before the addition of test compounds]−100

[1] = Concentration for evaluation 10 μM
[2] = Concentration for evaluation 3 μM
[3] = Concentration for evaluation 1 μM
[4] = Concentration for evaluation 50 μM

SMILES	Nav1.1 current amplification rate (%) [2] [%]	Nav1.1 current amplification rate (%) [3] [%]	also measured
CC1CC=C(c2ccc(=O)n(CC(=O)Nc3cccc4nccn34)n2)CC1 (centres unmarked) [Example 255]			Nav1.1 current amplification rate (%) [1]: 32%
CC1CC=C(c2ccc(=O)n(CC(=O)N3CCC(c4ccccc4)CC3)n2)CC1 (centres unmarked) [Example 256]			Nav1.1 current amplification rate (%) [1]: 36%
CC1CC=C(c2ccc(=O)n(CC(=O)N3CC=C(c4ccccc4)CC3)n2)CC1 (centres unmarked) [Example 257]	45		
CC1CC=C(c2ccc(=O)n(CC(=O)N3CCN(c4ccccc4)CC3)n2)CC1 (centres unmarked) [Example 258]	79		
CC1CC=C(c2ccc(=O)n(CC(=O)N3CCC(c4ccncc4)CC3)n2)CC1 (centres unmarked) [Example 259]			Nav1.1 current amplification rate (%) [1]: 71%
CC1CC=C(c2ccc(=O)n(CC(=O)N3CCC(c4ccccn4)CC3)n2)CC1 (centres unmarked) [Example 260]			Nav1.1 current amplification rate (%) [1]: 13%
CC1CC=C(c2ccc(=O)n(CC(=O)N3CCN(c4ccncc4)CC3)n2)CC1 (centres unmarked) [Example 261]			Nav1.1 current amplification rate (%) [1]: 60%
CC1CC=C(c2ccc(=O)n(CC(=O)N3CCC(c4cccnc4)CC3)n2)CC1 (centres unmarked) [Example 262]			Nav1.1 current amplification rate (%) [1]: 124%
CC1CC=C(c2ccc(=O)n(CC(=O)N3CCN(c4cncc(F)c4)CC3)n2)CC1 (centres unmarked) [Example 263]			Nav1.1 current amplification rate (%) [1]: 342%
Cc1ncc(-c2cccc3c2CCN3C(=O)Cn2nc(C3=CCC(C)CC3)ccc2=O)cn1 (centres unmarked) [Example 264]	597		
CC1CC=C(c2ccc(=O)n(CC(=O)N3CCc4c(C5=CCNC5)cccc43)n2)CC1 (centres unmarked) [Example 265]	110		
CC1CC=C(c2ccc(=O)n(CC(=O)N3CCc4c(C5=CCN(C)C5)cccc43)n2)CC1 (centres unmarked) [Example 267]	231		
CC1CC=C(c2ccc(=O)n(CC(=O)N3CCc4c(C5CCNC5)cccc43)n2)CC1 (centres unmarked) [Example 268]	55		
CC1CC=C(c2ccc(=O)n(CC(=O)N3CCc4c(C5CCN(C)C5)cccc43)n2)CC1 (centres unmarked) [Example 269]	127		
CC1CC=C(c2ccc(=O)n(CC(=O)N3CCc4c3ccnc4C3=CCN(C(=O)OC(C)(C)C)C3)n2)CC1 (centres unmarked) [Example 280]		10	
CC1CC=C(c2ccc(=O)n(CC(=O)N3CCc4c3ccnc4C3=CCNC3)n2)CC1 (centres unmarked) [Example 281]			Nav1.1 current amplification rate (%) [1]: 40%
CC1CC=C(c2ccc(=O)n(CC(=O)N3CCc4c3ccnc4C3=CCN(C)C3)n2)CC1 (centres unmarked) [Example 283]		15	
CC1CC=C(c2ccc(=O)n(CC(=O)N3CCc4c3ccnc4C3=CCOC3)n2)CC1 (centres unmarked) [Example 284]		91	
CC1CC=C(c2ccc(=O)n(CC(=O)N3CCc4c3ccnc4-c3cn[nH]c3)n2)CC1 (centres unmarked) [Example 285]		113	
CC1CC=C(c2ccc(=O)n(CC(=O)N3CCc4nc(-c5cn[nH]c5)ccc43)n2)CC1 (centres unmarked) [Example 289]			Nav1.1 current amplification rate (%) [4]: 51%
CC1CC=C(c2ccc(=O)n(CC(=O)N3CCOc4c(-c5cn[nH]c5)cccc43)n2)CC1 (centres unmarked) [Example 290]	94		

SMILES	Nav1.1 current amplification rate (%) [2] [%]	Nav1.1 current amplification rate (%) [3] [%]	also measured
CC1CC=C(c2ccc(=O)n(CC(=O)N3CCc4c(-c5cc[nH]n5)ccnc43)n2)CC1 (centres unmarked) [Example 291]			Nav1.1 current amplification rate (%) [4]: 212%
CC1CC=C(c2ccc(=O)n(CC(=O)N3CCc4c(-c5cc[nH]n5)ccc(F)c43)n2)CC1 (centres unmarked) [Example 292]		46	
CC1CC=C(c2ccc(=O)n(CC(=O)N3CCc4c(C=C5CCNCC5)cccc43)n2)CC1 (centres unmarked) [Example 293]			Nav1.1 current amplification rate (%) [4]: 55%
CC1CC=C(c2ccc(=O)n(CC(=O)N3CCc4c3ccc(F)c4-c3ccnnc3)n2)CC1 (centres unmarked) [Example 295]		95	
CC1CC=C(c2ccc(=O)n(CC(=O)N3CCc4c3ccnc4C3=CCOCC3)n2)CC1 (centres unmarked) [Example 296]		87	
CC1CC=C(c2ccc(=O)n(CC(=O)N3CCc4c3ccnc4-c3cccnc3)n2)CC1 (centres unmarked) [Example 297]		151	
CC1CC=C(c2ccc(=O)n(CC(=O)N3CCc4cc(-c5cccnc5)ccc43)n2)CC1 (centres unmarked) [Example 298]		51	
CC1CC=C(c2ccc(=O)n(CC(=O)N3CCc4c(C5CNC5)cccc43)n2)CC1 (centres unmarked) [Example 299]	6		
CC1CC=C(c2ccc(=O)n(CC(=O)N3CCc4c(C5CN(C)C5)cccc43)n2)CC1 (centres unmarked) [Example 300]	140		
CC1CC=C(c2ccc(=O)n(CC(=O)N3CCc4c(C5CN(C6COC6)C5)cccc43)n2)CC1 (centres unmarked) [Example 301]	410		
CCN1CC(c2cccc3c2CCN3C(=O)Cn2nc(C3=CCC(C)CC3)ccc2=O)C1 (centres unmarked) [Example 302]	104		
CC1CC=C(c2ccc(=O)n(CC(=O)N3CCc4c(C5CN(CCO)C5)cccc43)n2)CC1 (centres unmarked) [Example 303]	67		
CC1CC=C(c2ccc(=O)n(CC(=O)N3CCc4c(C5CN(C(C)C)C5)cccc43)n2)CC1 (centres unmarked) [Example 304]			Nav1.1 current amplification rate (%) [1]: 167%
CC1CC=C(c2ccc(=O)n(CC(=O)N3CCc4c(C5CN(C6CCOC6)C5)cccc43)n2)CC1 (centres unmarked) [Example 305]	314		
CC1CC=C(c2ccc(=O)n(CC(=O)N3CCc4c(C5CN(C(=O)C(C)(C)O)C5)cccc43)n2)CC1 (centres unmarked) [Example 306]	532		
CC1CC=C(c2ccc(=O)n(CC(=O)N3CCc4c(OCC(C)(C)O)cccc43)n2)CC1 (centres unmarked) [Example 307]	320		
COCCCN1CC2(CCN(C(=O)Cn3nc(C4=CCC(C)CC4)ccc3=O)C2)C1 (centres unmarked) [Example 308]			Nav1.1 current amplification rate (%) [4]: 9%
COC1CCN(c2nccc3c2CCN3C(=O)Cn2nc(C3=CCC(C)CC3)ccc2=O)CC1 (centres unmarked) [Example 309]		71	
CC(=O)N1CC=C(c2nccc3c2CCN3C(=O)Cn2nc(C3=CCC(C)CC3)ccc2=O)C1 (centres unmarked) [Example 310]		87	
CC1CC=C(c2ccc(=O)n(CC(=O)N3CCc4c(-c5cn[nH]c5)cncc43)n2)CC1 (centres unmarked) [Example 311]		265	

Second part, led by results:

Nav1.1 current amplification rate (%) [2] [%]	Nav1.1 current amplification rate (%) [3] [%]	SMILES	also measured
108		CC1CC=C(c2ccc(=O)n(CC(=O)N3CCc4c(CO)cccc43)n2)CC1 (centres unmarked) [Example 266]	
481		CC1CC=C(c2ccc(=O)n(CC(=O)N3CCc4c(CN5CCOCC5)cccc43)n2)CC1 (centres unmarked) [Example 270]	
48		CC1CC=C(c2ccc(=O)n(CC(=O)N3CCc4c(CN5CCCC5)cccc43)n2)CC1 (centres unmarked) [Example 271]	
	127	CO[C@H]1CCN(Cc2cccc3c2CCN3C(=O)Cn2nc(C3=CCC(C)CC3)ccc2=O)C1 (some centres unmarked) [Example 272]	
	77	CO[C@@H]1CCN(Cc2cccc3c2CCN3C(=O)Cn2nc(C3=CCC(C)CC3)ccc2=O)C1 (some centres unmarked) [Example 273]	
	60	COC1CN(Cc2cccc3c2CCN3C(=O)Cn2nc(C3=CCC(C)CC3)ccc2=O)C1 (centres unmarked) [Example 274]	
	46	COCCN(C)Cc1cccc2c1CCN2C(=O)Cn1nc(C2=CCC(C)CC2)ccc1=O (centres unmarked) [Example 275]	
	207	CC1CC=C(c2ccc(=O)n(CC(=O)N3CCc4c(CN(C)C5COC5)cccc43)n2)CC1 (centres unmarked) [Example 276]	
	210	CC1CC=C(c2ccc(=O)n(CC(=O)N3CCc4c3cccc4C(C)(C)O)n2)CC1 (centres unmarked) [Example 277]	
	26	CC1CC=C(c2ccc(=O)n(CC(=O)N3CCc4c(CN5CCCCC5)cccc43)n2)CC1 (centres unmarked) [Example 282]	
	848	CC1CC=C(c2ccc(=O)n(CC(=O)N3CCc4c(Cn5ccnc5)cccc43)n2)CC1 (centres unmarked) [Example 286]	
	73	CC1CC=C(c2ccc(=O)n(CC(=O)N3CCc4c(CN5CC=CC5)cccc43)n2)CC1 (centres unmarked) [Example 287]	
	115	Cc1cn(Cc2cccc3c2CCN3C(=O)Cn2nc(C3=CCC(C)CC3)ccc2=O)cn1 (centres unmarked) [Example 288]	
	271	CC1CC=C(c2ccc(=O)n(CC(=O)N3CCc4c(Cn5cncn5)cccc43)n2)CC1 (centres unmarked) [Example 294]	
	80	CC1CC=C(c2ccc(=O)n(CC(=O)N3CCc4c(CNCC(F)F)cccc43)n2)CC1 (centres unmarked) [Example 312]	
	84	CC1CC=C(c2ccc(=O)n(CC(=O)N3CCc4c(CNC5COC5)cccc43)n2)CC1 (centres unmarked) [Example 313]	
	9	COCCNCc1cccc2c1CCN2C(=O)Cn1nc(C2=CCC(C)CC2)ccc1=O (centres unmarked) [Example 314]	
	19	CC1CC=C(c2ccc(=O)n(CC(=O)N3CCc4c(CNC5CCC5)cccc43)n2)CC1 (centres unmarked) [Example 315]	
